Test results from patent US10160767B2 (Institute of Pharmacology and Toxicology Academy of …, priority 2014, dated 2018).
Counter-ions that a name gives are not always drawn.

How the values were obtained:
tumor cell A549 = experiment: Tumor cell inhibition, Cell Titer-Glo cell viability; type: cell-based; settings: Homo sapiens, A549 cells, 72 h
Method: The activities of example compounds to tumor cell A549 were evaluated.
(§1) Experimental materials: DMEM high-glucose cell culture media (Hyclone Company), fetal calf serum (FBS) (Gibco Company), penicillin and streptomycin were purchased from North China Pharmaceutical Co., Ltd, phosphate buffer saline (PBS) was purchased from Gibco Company, Cell Titer-Glo® cell viability detection reagent was purchased from Promega Company, pancreatin and dimethylsulfoxide (DMSO) were products of Sigma Company. A549 cell line (human lung adenocarcinoma cell line) was purchased from ATCC.
(§2) The cells were inoculated on a 96-well plate with white wall and penetrative bottom (Costar) in amount of 5000 cells per well, cultured at condition of 37° C., 5% CO2 for 24 h. The compounds to be tested were dissolved with DMSO and diluted to 100 mM, to obtain mother liquids of the compounds.
(§3) DMEM culture solution containing 2% FBS was used to diluted the compounds, in which concentration gradients were 3, and concentration range was 100 μM to 3 nM. The compounds in various dilution degrees were added to the cultured cells on the 96-well plate, 100 μl per well. Culture was performed at 37° C., CO2 for 72 h, supernatant was discarded, and cell viability detection test was performed.
(§4) AfterCell Titer-Glo® reaction buffer solution was mixed with isometric substrate, the mixture was added to 96-well plate, 100 μl per well. Cell lysis was induced by horizontally shaking for 4 min. Reaction signal was stabilized by balancing at room temperature for 15 min. Chemiluminescence units in each well of the 96-well plate were detected by using chemiluminescence detector.
(§5) Inhibition rates at different dilution degrees of each compound were calculated according to chemiluminescence value of each well, and Origin 8.0 software was used for S-type curve fitting of each compound, and for calculating EC50 value.

[1] = test system: multi-drug resistant tumor cell line MES-SA; experiment: Inhibition of drug-resistant tumor cell line, Cell Titer-Glo cell viability; therapeutic index against MRC5 cells; type: cell-based; settings: Homo sapiens, 72 h
Method: The activity of example compounds to multi-drug resistant tumor cell line MES-SA was evaluated.
as §1, with “MES-SA” for “A549”, “uterine sarcoma” for “lung adenocarcinoma”, “ATCC. MRC5 cell (human embryonic lung fibroblast) was purchased from ATCC.” for “ATCC.”
as §2
as §3, with “0.046 μM.” for “3 nM.”
as §4
as §5, with “value. The ratio of EC50 value of compound for MRC5 cell to EC50 value of compound for MES-SA cell was used as therapeutic index for the compound.” for “value.”

[2] = Solubility test (Chinese Pharmacopoeia 2010, Part II); type: physicochemical; settings: water, thermodynamic from solid

## CO[C@H]1C[C@@H]2CC[C@@H](C)[C@@](O)(O2)C(=O)C(=O)N2CCCC[C@H]2C(=O)O[C@H]([C@H](C)C[C@@H]2CC[C@@H](OC(=O)C[n+]3cscc3C)[C@H](OC)C2)CC(=O)[C@H](C)/C=C(\C)[C@@H](OC(=O)C[n+]2cscc2C)[C@@H](OC)C(=O)[C@H](C)C[C@H](C)/C=C/C=C/C=C/1C.[Br-].[Br-] [Example 1, 31,42-O-carbonylmethyl-(4-methyl-thiazole bromide salt-3-yl)-rapamycin]
other
  melting point: 142 to 145 °C
Tumor cell A549
  IC50: 17.4 µM
[1]
  IC50: < 0.046 µM
[2]
  solubility: 34.5 mg/mL

## CO[C@H]1C[C@@H]2CC[C@@H](C)[C@@](O)(O2)C(=O)C(=O)N2CCCC[C@H]2C(=O)O[C@H]([C@H](C)C[C@@H]2CC[C@@H](OC(=O)C[n+]3cscc3C)[C@H](OC)C2)CC(=O)[C@H](C)/C=C(\C)[C@@H](O)[C@@H](OC)C(=O)[C@H](C)C[C@H](C)/C=C/C=C/C=C/1C.[Br-] [Example 2, 42-O-carbonylmethyl-(4-methyl-thiazole bromide salt-3-yl)-rapamycin]
other
  melting point: 130 to 133 °C
Tumor cell A549
  IC50: 19.3 µM
[1]
  IC50: < 0.046 µM

## CO[C@H]1C[C@@H]2CC[C@@H](C)[C@@](O)(O2)C(=O)C(=O)N2CCCC[C@H]2C(=O)O[C@H]([C@H](C)C[C@@H]2CC[C@@H](O)[C@H](OC)C2)CC(=O)[C@H](C)/C=C(\C)[C@@H](OC(=O)C[n+]2cscc2C)[C@@H](OC)C(=O)[C@H](C)C[C@H](C)/C=C/C=C/C=C/1C.[Br-] [Example 3, 31-O-carbonylmethyl-(4-methyl-thiazole bromide salt-3-yl)-rapamycin]
other
  melting point: 130 to 132 °C
Tumor cell A549
  IC50: 3.04 µM
[1]
  IC50: < 0.046 µM

## CO[C@H]1C[C@@H]2CC[C@@H](C)[C@@](O)(O2)C(=O)C(=O)N2CCCC[C@H]2C(=O)O[C@H]([C@H](C)C[C@@H]2CC[C@@H](OC(=O)C[n+]3csc(C)c3C)[C@H](OC)C2)CC(=O)[C@H](C)/C=C(\C)[C@@H](OC(=O)C[n+]2csc(C)c2C)[C@@H](OC)C(=O)[C@H](C)C[C@H](C)/C=C/C=C/C=C/1C.[Br-].[Br-] [Example 4, 31,42-O-carbonylmethyl-(4,5-dimethyl-thiazole bromide salt-3-yl)-rapamycin]
Tumor cell A549
  IC50: 6.23 µM
[1]
  IC50: < 0.046 µM
[2]
  solubility: 100 mg/mL

## CO[C@H]1C[C@@H]2CC[C@@H](C)[C@@](O)(O2)C(=O)C(=O)N2CCCC[C@H]2C(=O)O[C@H]([C@H](C)C[C@@H]2CC[C@@H](OC(=O)C[n+]3csc(C)c3C)[C@H](OC)C2)CC(=O)[C@H](C)/C=C(\C)[C@@H](O)[C@@H](OC)C(=O)[C@H](C)C[C@H](C)/C=C/C=C/C=C/1C [Example 5, 42-O-carbonylmethyl-(4,5-dimethyl-thiazole bromide salt-3-yl)-rapamycin]
Tumor cell A549
  IC50: 7.4 µM
[1]
  IC50: < 0.046 µM

## CO[C@H]1C[C@@H]2CC[C@@H](C)[C@@](O)(O2)C(=O)C(=O)N2CCCC[C@H]2C(=O)O[C@H]([C@H](C)C[C@@H]2CC[C@@H](O)[C@H](OC)C2)CC(=O)[C@H](C)/C=C(\C)[C@@H](OC(=O)C[n+]2csc(C)c2C)[C@@H](OC)C(=O)[C@H](C)C[C@H](C)/C=C/C=C/C=C/1C [Example 6, 31-O-carbonylmethyl-(4,5-dimethyl-thiazole bromide salt-3-yl)-rapamycin]
Tumor cell A549
  IC50: 52.3 µM
[1]
  IC50: < 0.046 µM

## CO[C@H]1C[C@@H]2CC[C@@H](C)[C@@](O)(O2)C(=O)C(=O)N2CCCC[C@H]2C(=O)O[C@H]([C@H](C)C[C@@H]2CC[C@@H](OC(=O)C[n+]3ccccc3)[C@H](OC)C2)CC(=O)[C@H](C)/C=C(\C)[C@@H](OC(=O)C[n+]2ccccc2)[C@@H](OC)C(=O)[C@H](C)C[C@H](C)/C=C/C=C/C=C/1C.[Br-].[Br-] [Example 7, 31,42-O-carbonylmethyl-(pyridine bromide salt-1-yl)-rapamycin]
other
  melting point: 140 to 142 °C
Tumor cell A549
  IC50: 46.7 µM
[1]
  IC50: < 0.046 µM
[2]
  solubility: 85 mg/mL

## CO[C@H]1C[C@@H]2CC[C@@H](C)[C@@](O)(O2)C(=O)C(=O)N2CCCC[C@H]2C(=O)O[C@H]([C@H](C)C[C@@H]2CC[C@@H](OC(=O)C[n+]3cccc(O)c3)[C@H](OC)C2)CC(=O)[C@H](C)/C=C(\C)[C@@H](OC(=O)C[n+]2cccc(O)c2)[C@@H](OC)C(=O)[C@H](C)C[C@H](C)/C=C/C=C/C=C/1C.[Br-].[Br-] [Example 8, 31,42-O-carbonylmethyl-(3-hydroxy-pyridine bromide salt-1-yl)-rapamycin]
other
  melting point: 120 to 124 °C
Tumor cell A549
  IC50: 46 µM
[1]
  IC50: < 0.046 µM
[2]
  solubility: 0.1 mg/mL

## CO[C@H]1C[C@@H]2CC[C@@H](C)[C@@](O)(O2)C(=O)C(=O)N2CCCC[C@H]2C(=O)O[C@H]([C@H](C)C[C@@H]2CC[C@@H](OC(=O)C[n+]3cccc(C)c3)[C@H](OC)C2)CC(=O)[C@H](C)/C=C(\C)[C@@H](OC(=O)C[n+]2cccc(C)c2)[C@@H](OC)C(=O)[C@H](C)C[C@H](C)/C=C/C=C/C=C/1C.[Br-].[Br-] [Example 9, 31,42-O-carbonylmethyl-(3-methyl-pyridine bromide salt-1-yl)-rapamycin]
other
  melting point: 159 to 162 °C
Tumor cell A549
  IC50: 25.1 µM
[1]
  IC50: 7.21 µM
[2]
  solubility: 47 mg/mL

## CO[C@H]1C[C@@H]2CC[C@@H](C)[C@@](O)(O2)C(=O)C(=O)N2CCCC[C@H]2C(=O)O[C@H]([C@H](C)C[C@@H]2CC[C@@H](OC(=O)C[n+]3ccccc3)[C@H](OC)C2)CC(=O)[C@H](C)/C=C(\C)[C@@H](O)[C@@H](OC)C(=O)[C@H](C)C[C@H](C)/C=C/C=C/C=C/1C.[Br-] [Example 10, 42-O-carbonylmethyl-(pyridine bromide salt-1-yl)-rapamycin]
other
  melting point: 135 to 137 °C
Tumor cell A549
  IC50: 66.3 µM
[1]
  IC50: 10.9 µM

## CO[C@H]1C[C@@H]2CC[C@@H](C)[C@@](O)(O2)C(=O)C(=O)N2CCCC[C@H]2C(=O)O[C@H]([C@H](C)C[C@@H]2CC[C@@H](OC(=O)C[n+]3cccc(O)c3)[C@H](OC)C2)CC(=O)[C@H](C)/C=C(\C)[C@@H](O)[C@@H](OC)C(=O)[C@H](C)C[C@H](C)/C=C/C=C/C=C/1C.[Br-] [Example 12, 42-O-carbonylmethyl-(3-hydroxy-pyridine bromide salt-1-yl)-rapamycin]
other
  melting point: 146 to 148 °C
Tumor cell A549
  IC50: 51.5 µM
[1]
  IC50: < 0.046 µM

## CO[C@H]1C[C@@H]2CC[C@@H](C)[C@@](O)(O2)C(=O)C(=O)N2CCCC[C@H]2C(=O)O[C@H]([C@H](C)C[C@@H]2CC[C@@H](OC(=O)C[n+]3ccc(C)cc3)[C@H](OC)C2)CC(=O)[C@H](C)/C=C(\C)[C@@H](OC(=O)C[n+]2ccc(C)cc2)[C@@H](OC)C(=O)[C@H](C)C[C@H](C)/C=C/C=C/C=C/1C.[Br-].[Br-] [Example 14, 31,42-O-carbonylmethyl-(4-methyl-pyridine bromide salt-1-yl)-rapamycin]
other
  melting point: 181 to 183 °C
Tumor cell A549
  IC50: 44 µM
[1]
  IC50: < 0.046 µM
[2]
  solubility: 120 mg/mL

## CO[C@H]1C[C@@H]2CC[C@@H](C)[C@@](O)(O2)C(=O)C(=O)N2CCCC[C@H]2C(=O)O[C@H]([C@H](C)C[C@@H]2CC[C@@H](O)[C@H](OC)C2)CC(=O)[C@H](C)/C=C(\C)[C@@H](OC(=O)C[n+]2cccc(C)c2)[C@@H](OC)C(=O)[C@H](C)C[C@H](C)/C=C/C=C/C=C/1C.[Br-] [Example 15, 31-O-carbonylmethyl-(3-methyl-pyridine bromide salt-1-yl)-rapamycin]
other
  melting point: 138 to 140 °C
Tumor cell A549
  IC50: 52.7 µM
[1]
  IC50: < 0.046 µM

## CO[C@H]1C[C@@H]2CC[C@@H](C)[C@@](O)(O2)C(=O)C(=O)N2CCCC[C@H]2C(=O)O[C@H]([C@H](C)C[C@@H]2CC[C@@H](O)[C@H](OC)C2)CC(=O)[C@H](C)/C=C(\C)[C@@H](OC(=O)C[n+]2ccccc2)[C@@H](OC)C(=O)[C@H](C)C[C@H](C)/C=C/C=C/C=C/1C.[Br-] [Example 16, 31-O-carbonylmethyl-(pyridine bromide salt-1-yl)-rapamycin]
other
  melting point: 140 to 142 °C
Tumor cell A549
  IC50: 57.7 µM
[1]
  IC50: < 0.046 µM
